# Measurements: patent US6977263B2, “Chemical compounds” (Aventis Pharmaceuticals Inc., priority 2000, dated 2005)
# pKi: −log10 of the molar value. Counter-ions that a name gives are not always drawn.
# Biological target: T1, recombinant human β tryptase (Homo sapiens, UniProt Q15661)
# T1 construct: made in house; host or cells: yeast cells
# Assay: Tryptase chromogenic enzyme assay (S2366 substrate), Ki determination
# Assay type: biochemical
# Settings: room temperature, 0.5 mM S2366 substrate (2×Km), read at 405 nm; Ki=IC50/(1+[Substrate]/Km)
# Protocol: Tryptase inhibition activity is confirmed using either isolated human lung tryptase or recombinant human β tryptase expressed in yeast cells. Essentially equivalent results are obtained using isolated native enzyme or the expressed enzyme. The assay procedure employs a 96 well microplate (Costar 3590) using L-pyroglutamyl-L-prolyl-L-arginine-para-nitroanilide (S2366: Quadratech) as substrate (essentially as described by McEuen et. al. Biochem Pharm, 1996, 52, pages 331-340). Assays are performed at room temperature using 0.5 mM substrate (2×Km) and the microplate is read on a microplate reader (Beckman Biomek Plate reader) at 405 nm wavelength. It was determined using the procedure set forth herein.
# Materials and Methods for Tryptase Primary Screen (Chromogenic Assay)
# S2366 (Stock solutions of 2.5 mM).
# Purified recombinant beta Tryptase Stocks of 310 ug/ml.
# • Add 60 ul of diluted substrate (final concentration of 500 uM in assay buffer) to each well • Add compound in duplicates, final concentration of 20 uM, volume 20 ul • Add enzyme at a final concentration of 50 ng/ml in a volume of 20 ul • Total volume for each well is 100 ul • Agitate briefly to mix and incubate at room temp in the dark for 30 minutes • Read absorbencies at […]
# Each plate has the following controls • Totals: 60 ul of substrate, 20 ul of buffer (with 0.2% final concentration of DMSO), 20 ul of enzyme • Non-specific: 60 ul of substrate, 40 ul of buffer (with 0.2% DMSO) • Totals: 60 ul of substrate, 20 ul of buffer (No DMSO), 20 ul of enzyme • Non-specific: 60 ul of substrate, 40 ul of buffer (No DMSO) Protocol (IC50 and Ki Determination)
# The protocol is essentially the same as above except that the compound is added in duplicates at the following final concentrations: 0.01, 0.03, 0.1, 0.3, 1, 3, 10 uM (All dilutions carried out manually). For every assay, whether single point or IC50 determination, a standard compound is used to derive IC50 for comparison. From the IC 50 value, the Ki can be calculated using the following formula: Ki=IC50/(1+[Substrate]/Km).
# T1 sequence (Q15661 31-275): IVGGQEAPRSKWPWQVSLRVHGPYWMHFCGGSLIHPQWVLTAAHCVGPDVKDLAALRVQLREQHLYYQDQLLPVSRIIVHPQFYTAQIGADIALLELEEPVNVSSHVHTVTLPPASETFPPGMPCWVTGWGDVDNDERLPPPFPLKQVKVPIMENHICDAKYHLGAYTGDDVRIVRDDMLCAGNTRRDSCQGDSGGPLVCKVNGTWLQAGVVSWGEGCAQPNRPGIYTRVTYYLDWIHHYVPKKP
row,Compound,pKi
1,"NCc1cccc(C2CCN(C(=O)c3ccc(Cl)c(Cl)c3)CC2)c1 [Example 36, [4-(3-Aminomethylphenyl)piperidin-1-yl]-(3,4-dichlorophenyl)methanone trifluoroacetate]",7.51
2,"NCc1cccc(C2CCN(C(=O)c3ccc(CCc4ccccc4)s3)CC2)c1 [Example 13, 3-[1-(5-Phenylethyl-thiophene-2-carbonyl)-piperidin-4-yl]-benzylamine hydrochloride]",7.30
3,"NCc1cccc(C2CCN(C(=O)c3cccc(COc4ccccc4)c3)CC2)c1 [Example 15, 3-[1-(3-Phenoxymethyl-benzoyl)-piperidin-4-yl]-benzylamine hydrochloride]",5.97
4,"N#CC1(c2cccc(CN)c2)CCN(C(=O)c2cncc(CCc3ccccc3)c2)CC1 [Example 35, 4-(3-Aminomethyl-phenyl)-1-(5-phenethyl-pyridine-3-carbonyl)-piperidine-4-carbonitrile]",7.03
5,"NCc1cccc(C2CCN(C(=O)c3ccc(Cl)cc3)CC2)c1 [Example 48, 1-[4-(3-Aminomethyl-phenyl)-piperidin-1-yl]-1-(4-chloro-phenyl)-methanone trifluoroacetate]",6.41
6,"NCc1cccc(C2CCN(C(=O)c3cccc(-c4nnc(-c5ccccc5Cl)o4)c3)CC2)c1 [Example 49, 1-[4-(3-Aminomethyl-phenyl)-piperidin-1-yl]-1-{3-[5-(2-chloro-phenyl)-[1,3,4]oxadiazol-2-yl]-phenyl}-methanone trifluoroacetate]",6.41
7,"NCc1cccc(C2CCN(C(=O)c3cccc(-c4nnc(-c5ccccc5)o4)c3)CC2)c1 [Example 19, 3-{1-[3-(5-Phenyl-1,3,4-oxadiazol-2-yl)-phenylcarbonyl]-piperidin-4-yl}-benzylamine hydrochloride]",6.74
8,"Cc1ccc(CN)cc1C1CCN(C(=O)c2cncc(CCc3ccccc3)c2)CC1 [Example 18, 4-Methyl-3-[1-(5-phenylethyl-pyridine-3-carbonyl)-piperidin-4-yl]-benzylamine di-hydrochloride]",7.16

# Second part, the compound after the results:
row,pKi,Compound
1,6.54,"NCc1cccc(C2CCN(C(=O)c3scc4c3CCCC4)CC2)c1 [Example 70, 1-[4-(3-Aminomethyl-phenyl)-piperidin-1-yl]-1-(4,5,6,7-tetrahydro-benzo[c]thiophen-1-yl)-methanone-trifluoroacetate]"
2,6.31,"NCc1cc(C2CCN(C(=O)c3cncc(CCc4ccccc4)c3)CC2)cs1 [Example 100, dihydrochloride]"
3,6.74,"NCc1cccc(C2CCN(C(=O)c3cccc(CCc4ccccc4O)c3)CC2)c1 [Example 98, 1-[4-(3-Aminomethyl-phenyl)-piperidin-1-yl]-1-{3-[2-(2-hydroxy-phenyl)-ethyl]-phenyl}-methanone hydrochloride]"
4,6.35,"NCc1cccc(C2CCN(C(=O)c3ccc(CCc4ccccc4)cc3)CC2)c1 [Example 97, 1-[4-(3-Aminomethylphenyl)-piperidin-1-yl]-1-(4-phenylethyl-phenyl)-methanone hydrochloride]"
5,6.72,"NCc1cccc(C2CCN(C(=O)c3cc4sc(Cl)cc4s3)CC2)c1 [Example 92, 1-[4-(3-Aminomethyl-phenyl)-piperidin-1-yl]-1-(5-chloro-thieno[3,2-b]thiophen-2-yl)-methanone trifluoroacetate]"
6,6.06,"NCc1cccc(C2CCN(C(=O)c3cccc(C#Cc4ccc(F)cc4)c3)CC2)c1 [Example 83, 1-[4-(3-Aminomethyl-phenyl)-piperidin-1-yl]-1-[3-(4-fluoro-phenylethynyl)-phenyl]-methanone trifluoroacetate]"
